The values below come from PMC5684613 (BioMed Research International, 2017).

The structures appear in SMILES notation. ≈ marks a conversion by molar mass, not a printed value. Read-outs that look alike come from different tables or passages of the source.

Series [1] in a line: Oral pharmacokinetic study, fasted and fed state. As to conditions: for K el / AUC(0-t) / AUC / Cmax: oral; for K el / AUC(0-t) / AUC: 70 mg/kg DRV; for AUC(0-t): AUC0-t; for AUC: AUC0-α; for Cmax: C max, 70 mg/kg DRV (8 mg/kg Ritonavir).
The subject of a further series is everted gut sac. In words: In vitro permeation study by everted gut sac method. Type of series: in vitro ADME, albino Wistar rats. Conditions: after 2 h, serosal fluid, 1 mg/ml DRV outside. The method, then: (§1) The tissue was continuously aerated (oxygenated) with the aid of an electrical aerator. Intestinal segments of 4 cm were cut and ligated with nylon thread at one end and carefully everted on the glass rod. The everted gut sacs were filled with 500 μl of Tyrode solution and ligated at the other end and then placed inside the test tube containing 15 mL of the test solution continuously bubbled with atmospheric air at 15–20 bubbles per min separately. Test tubes were maintained at temperature 37 ± 0.5°C on water bath. The test solution outside the sac was termed as mucosal fluid, and the solution inside the sac was termed as serosal fluid.

Assay in series [2]: as above
Type of series: in vitro ADME, albino Wistar rats. As to conditions: male, albino Wistar, rat, pH 7.4; mucosal to serosal, n = 3; read-out: Apparent permeability coefficient mean ± SD. How it is done: as §1

Series [3] in a line: Dissolution studies in FaSSIF and FeSSIF media. The format is physicochemical. As to conditions: n = 3. How it is done: These two biorelevant media, FaSSIF and FeSSIF, were developed to simulate the condition of the intestine in the fasted and fed states.
Blank FaSSIF was prepared by dissolving 6.186 g NaCl, 4.47 g NaH2PO4, and 0.348 g NaOH in 900 ml of distilled water and the pH was adjusted to 6.5 by using 1 N NaOH or HCl using pH meter. The volume was made up to 1000 ml using distilled water.
Blank FaSSIF medium (500 ml) was taken and 2.240 g SIF powder was added to it and this solution was magnetically stirred until the powder completely dissolved to obtain a clear micellar solution. The volume was made up to 1000 ml using the buffer. The solution was allowed to stand for 2 h; it becomes slightly opalescent and thereafter used. A volume of 500 ml is recommended for dissolution for simulating fasted state condition
Blank FeSSIF was prepared by dissolving 8.65 g glacial acetic acid, 11.874 g NaCl, and 4.04 g NaOH in 900 ml of distilled water and the pH was adjusted to 5.0 by using 1 N NaOH or HCl using pH meter. The volume was made up to 1000 ml using distilled water.
Blank FeSSIF medium (500 ml) was taken and 11.20 g SIF powder was added to it and this solution was magnetically stirred until the powder completely dissolved to obtain a clear micellar solution. The volume was made up to 1000 ml using the buffer and thereafter used. For simulating fed state condition 1 L dissolution fluid is recommended.

Series [4] in a line: In vitro dissolution study, USP II paddle, acetate buffer pH 4.5. Type of series: physicochemical. Conditions: acetate buffer pH 4.5, after 90 min, n = 3. The method, then: Dissolution studies were performed using a USP II Paddle dissolution apparatus (Distek, USA). The prepared SDs were filled in 00 size capsules and placed in Japanese sinkers. The sinkers were then placed in dissolution vessels containing 900 ml of acetate buffer pH 4.5, at 75 rpm and temperature 37 ± 0.5°C. Samples (5 ml) were collected periodically at 15, 30, 45, 60, and 90 min, filtered through a 0.45 μm PVDF filter and replaced with a fresh dissolution medium (5 ml). The concentrations were analyzed at 264 nm by UV spectrophotometer.

For series [5] the following is noted: cited from earlier work.
Series [6] can be described thus: Phase solubility study of DRV in aqueous carrier solutions.
Details of series [7]: method as in Kim et al. [32]. As to conditions: simultaneous administration of curcumin, rats; ref Kim et al. [32]; cited from earlier work.
Details of series [8]: method as in Varma and Panchagnula [30]. Conditions: ref Varma and Panchagnula [30], cited from earlier work.
The mark [9] stands for this setting: male, albino Wistar, rat, in vivo, po, 70 mg/kg, Group A (fasted).
Setting [10] is: male, albino Wistar, rat, in vivo, po, 70 mg/kg, Group B (fed).

Consider `CC(C)CN(C[C@@H](O)[C@H](Cc1ccccc1)NC(=O)O[C@H]1CO[C@H]2OCC[C@H]21)S(=O)(=O)c1ccc(N)cc1` [DRV, Darunavir], for which the K el is 0.211 ± 0.002 in [1] (Group A (fasted)) and 0.228 ± 0.003 in series [1] (Group B (fed)). Moreover, the Tmax in series [1] (male, albino Wistar, rat, in vivo, po, 70 mg/kg) amounted to 1 h. In addition, the exposure AUC(0-t) in series [1] (setting [9]) was 116 ng·h/mL; in series [1] (setting [10]), 258 ng·h/mL. In addition, the AUC was 117 ng·h/mL in [1] (setting [9]) and 259 ng·h/mL in series [1] (setting [10]). Besides, the results for the Cmax in series [1] (setting [9]) and in series [1] (setting [10]) were 2860 ± 366 ng/mL and 5870 ± 565 ng/mL, respectively. In addition, the “concentration of the drug inside the sac” value with everted gut sac was 451480 ± 4020 ng/mL. In addition, the Papp at 120 min, 1 mg/ml in [2] was determined as 0.828 ± 0.12 ×10⁻⁶ cm/s. For the same compound, the results for the “Cumulative % drug release (±SD) in FaSSIF” value in [3] (after 30 min), in series [3] (after 60 min) and in series [3] (after 90 min) were 13.8 ± 0.239%, 25.7 ± 0.512% and 31.2 ± 0.425%, respectively. Also, the “Cumulative % drug release (±SD)” value in series [4] amounted to 30.9%. For the same compound, in [5], the solubility in water was 150 µg/mL (≈ 274 µM). Besides, the concentration in solution in [6] (solubility at 72 h) came to 150 µg/mL (≈ 274 µM).

For the compound `CC(C)(C)NC(=O)[C@@H]1C[C@@H]2CCCC[C@@H]2CN1C[C@@H](O)[C@H](Cc1ccccc1)NC(=O)[C@H](CC(N)=O)NC(=O)c1ccc2ccccc2n1` [Saquinavir], in series [7], the “increase of oral exposure” value is 2.7 fold.

As to `CC(=O)O[C@H]1C(=O)[C@@]2(C)[C@H]([C@H](OC(=O)c3ccccc3)[C@]3(O)C[C@H](OC(=O)[C@H](O)[C@@H](NC(=O)c4ccccc4)c4ccccc4)C(C)=C1C3(C)C)[C@]1(OC(C)=O)CO[C@@H]1C[C@@H]2O` [paclitaxel], the results for the Intrinsic permeability in series [8] (in the presence of 1 mg/ml TPGS) and in [8] (without TPGS) were 22 ×10⁻⁶ cm/s and 8 ×10⁻⁶ cm/s, respectively.
